Experimental data: the supplement of paper PMC10307832

Legend:
Assay in all cases: relative viability (nuclei count vs DMSO), 5 days (fraction); higher = more cells survive
AZD1208 + Trametinib = compound: N[C@@H]1CCCN(c2c(/C=C3\SC(=O)NC3=O)cccc2-c2ccccc2)C1 [AZD1208] + CC(=O)Nc1cccc(-n2c(=O)n(C3CC3)c(=O)c3c(Nc4ccc(I)cc4F)n(C)c(=O)c(C)c32)c1 [Trametinib] (partner 0.02 µM)
Summary of the method: (§1)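 Lung cancer cell lines in 1536-well plates got either a single drug or a fixed anchor-drug dose together with five library-drug doses (not always all listed) in √10 steps, by pin tool, on the day after seeding. Nuclei were counted after 5 days, and relative viability is the treated-to-vehicle ratio of nuclei counts. Values are medians of duplicate plates.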

XMD14-99 + Dasatinib = compound: CN1CCN(CC1)C2=CC(=C(C=C2)NC3=NC(=C(S3)C(=O)C4=C(C=CC=C4Cl)Cl)N)OC [XMD14-99] + Cc1nc(Nc2ncc(C(=O)Nc3c(C)cccc3Cl)s2)cc(N2CCN(CCO)CC2)n1 [Dasatinib] (partner 0.075 µM)
Summary of the method: as §1

AZD1208 + Pictilisib = compound: N[C@@H]1CCCN(c2c(/C=C3\SC(=O)NC3=O)cccc2-c2ccccc2)C1 [AZD1208] + CS(=O)(=O)N1CCN(Cc2cc3nc(-c4cccc5[nH]ncc45)nc(N4CCOCC4)c3s2)CC1 [Pictilisib] (partner 1 µM)
Summary of the method: as §1

AZD1208 + Foretinib = compound: N[C@@H]1CCCN(c2c(/C=C3\SC(=O)NC3=O)cccc2-c2ccccc2)C1 [AZD1208] + COc1cc2c(Oc3ccc(NC(=O)C4(C(=O)Nc5ccc(F)cc5)CC4)cc3F)ccnc2cc1OCCCN1CCOCC1 [Foretinib] (partner 0.25 µM)
Summary of the method: as §1

Cell Line | relative viability (AZD1208 + Trametinib; first compound 0.08 µM) | relative viability (AZD1208 + Trametinib; first compound 0.253 µM) | relative viability (AZD1208 + Trametinib; first compound 0.8 µM) | relative viability (AZD1208 + Trametinib; first compound 2.53 µM) | relative viability (AZD1208 + Trametinib; first compound 8 µM) | relative viability (XMD14-99 + Dasatinib; first compound 0.08 µM) | relative viability (XMD14-99 + Dasatinib; first compound 0.8 µM) | relative viability (XMD14-99 + Dasatinib; first compound 2.53 µM) | relative viability (XMD14-99 + Dasatinib; first compound 8 µM) | relative viability (AZD1208 + Pictilisib; first compound 0.08 µM) | relative viability (AZD1208 + Pictilisib; first compound 0.253 µM) | relative viability (AZD1208 + Pictilisib; first compound 0.8 µM) | relative viability (AZD1208 + Pictilisib; first compound 2.53 µM) | relative viability (AZD1208 + Pictilisib; first compound 8 µM) | relative viability (AZD1208 + Foretinib; first compound 0.08 µM) | relative viability (AZD1208 + Foretinib; first compound 0.253 µM) | relative viability (AZD1208 + Foretinib; first compound 0.8 µM) | relative viability (AZD1208 + Foretinib; first compound 2.53 µM) | relative viability (AZD1208 + Foretinib; first compound 8 µM)
LXF-289 | 0.678 | 0.629 | 0.673 | 0.694 | 0.747 | 0.238 | 0.173 | 0.208 | 0.204 | 0.706 | 0.724 | 0.73 | 0.699 | 0.724 | 0.978 | 1.03 | 0.996 | 0.962 | 1.03
H3255 | 0.537 | 0.616 | 0.636 | 0.624 | 0.519 | 0.437 | 0.496 | 0.347 | 0.249 | 0.402 | 0.44 | 0.408 | 0.364 | 0.451 | 0.919 | 0.867 | 0.65 | 0.954 | 0.932
201T | 0.749 | 0.716 | 0.721 | 0.725 | 0.732 | 0.593 | 0.618 | 0.546 | 0.523 | 0.644 | 0.641 | 0.649 | 0.62 | 0.686 | 1.06 | 1.12 | 1.07 | 1.06 | 1
NCI-H2228 | 0.578 | 0.669 | 0.36 | 0.525 | 0.343 | 0.376 | 0.451 | 0.405 | 0.148 | 0.207 | 0.328 | 0.381 |  | 0.285 | 0.78 | 0.809 | 0.635 | 0.842 | 0.761
HOP-62 | 0.372 | 0.381 | 0.379 | 0.377 | 0.322 | 0.635 | 0.658 | 0.656 | 0.496 | 0.658 | 0.638 | 0.658 | 0.455 | 0.717 | 1.03 | 1.16 | 1.02 | 1.03 | 1.06
CAL-12T | 0.377 | 0.331 | 0.339 | 0.332 | 0.251 | 0.34 | 0.449 | 0.356 | 0.248 | 0.507 | 0.523 | 0.389 | 0.355 | 0.511 | 1.1 | 1.28 | 1.04 | 1.35 | 1.38
NCI-H596 | 0.759 | 0.905 | 0.79 | 0.654 | 0.446 | 0.597 | 0.604 | 0.572 | 0.562 | 0.388 | 0.349 | 0.366 | 0.348 | 0.328 | 0.882 | 0.912 | 0.806 | 0.865 | 0.673
NCI-H1755 | 0.755 | 0.841 | 0.779 | 0.705 | 0.647 | 0.404 | 0.405 | 0.4 | 0.369 | 0.377 | 0.441 | 0.368 | 0.326 | 0.283 | 0.908 | 0.892 | 0.851 | 0.861 | 0.787
NCI-H2085 | 0.55 | 0.475 | 0.558 | 0.446 | 0.531 | 0.267 | 0.261 | 0.273 | 0.241 | 0.418 | 0.459 | 0.36 | 0.43 | 0.564 | 0.965 | 0.97 | 1.23 | 0.886 | 0.748
NCI-H2023 | 0.601 | 0.55 | 0.416 | 0.506 | 0.394 | 0.536 | 0.607 | 0.739 | 0.404 | 0.193 | 0.223 | 0.203 | 0.183 | 0.209 | 0.811 | 0.462 | 0.795 | 0.805 | 0.634
